From ChEMBL document CHEMBL5331080, “Discovery of tetrahydrofuranyl spirooxindole-based SMYD3 inhibitors against gastric cancer via inducing lethal autophagy” (Eur J Med Chem, 2023)
Each block holds one molecule with its values, some of them ahead of it. The source made the active and inactive calls. The calls are words filed in the database; no cut-off is given here.

Legend:
[1] = molecular target: T1, Histone-lysine N-methyltransferase SMYD3 (Homo sapiens) (UniProt Q9H7B4); experiment: (§1) Inhibition of GST-tagged SMYD3 (unknown origin) using biotinylated MAP3K2 peptide as substrate incubated for 1 hrs by TR-FRET based assay
T1 sequence (whole entry): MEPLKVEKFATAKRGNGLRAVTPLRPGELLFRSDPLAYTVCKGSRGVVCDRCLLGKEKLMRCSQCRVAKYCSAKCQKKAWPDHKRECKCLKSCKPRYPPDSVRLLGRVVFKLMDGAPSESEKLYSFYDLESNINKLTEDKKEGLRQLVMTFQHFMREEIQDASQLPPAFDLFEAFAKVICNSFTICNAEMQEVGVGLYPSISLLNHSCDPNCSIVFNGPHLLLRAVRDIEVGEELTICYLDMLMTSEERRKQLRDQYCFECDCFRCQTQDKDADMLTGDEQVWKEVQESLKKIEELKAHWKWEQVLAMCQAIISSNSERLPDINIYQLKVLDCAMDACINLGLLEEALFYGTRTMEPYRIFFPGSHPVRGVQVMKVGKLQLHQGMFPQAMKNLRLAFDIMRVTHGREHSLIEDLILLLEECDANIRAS

BGC-823 [2] = experiment: Antiproliferative activity against human BGC-823 cells assessed as inhibition of cell proliferation by MTT assay; assay type: functional, cell-based
HGC-27 = experiment: Antiproliferative activity against human HGC-27 cells assessed as inhibition of cell proliferation by MTT assay; assay type: functional, cell-based
BGC-823 [3] = experiment: Induction of autophagy in human BGC-823 cells assessed as autophagic vacuoles by transmission electron microscopic analysis; assay type: functional, cell-based
[4] = molecular target: Histone-lysine N-methyltransferase EZH2 (Homo sapiens) (UniProt Q15910); experiment: Inhibition of EZH2 (unknown origin)
BGC-823 [5] = experiment: Antiproliferative activity against human BGC-823 cells transfected with […] siRNA assessed as reduction in cell viability incubated for 48 hrs by MTT assay; assay type: functional, cell-based
[6] = molecular target: T1, Histone-lysine N-methyltransferase SMYD3 (Homo sapiens); experiment: Inhibition of SMYD3 in human BGC-823 cells assessed as suppression of H3K4 methylation level at 1 uM by Western blot analysis; assay type: cell-based
Mus musculus [7] = experiment: Effect on total Akt protein level in Balb/c nude mouse xenografted with human BGC-823 cells at 15 to 30 mg/kg, ip by immunohistochemistry analysis; assay type: functional, organism-based; conditions: dose 15-30 mg/kg
BGC-823 [8] = experiment: Inhibition of autophagic flux in human BGC-823 cells transfected with Akt1 siRNA assessed as increase in mTOR incubated for 24 hrs by Western blot analysis; assay type: functional, cell-based
BGC-823 [9] = experiment: Effect on total H3 methylation level in human BGC-823 cells at 1 uM by Western blot analysis; assay type: functional, cell-based
[10] = molecular target: T1, Histone-lysine N-methyltransferase SMYD3 (Homo sapiens); experiment: Inhibition of SMYD3-induced Akt1 lysine methylation in human BGC-823 cells at 1 uM by Western blot analysis; assay type: cell-based
BGC-823 [11] = experiment: Antiproliferative activity against human BGC-823 cells xenografted in Balb/c nude mouse assessed as induction of autophagy by measuring increase in p62 staining at 15 to 30 mg/kg, ip by immunohistochemistry analysis; assay type: functional, organism-based; conditions: dose 15-30 mg/kg
BGC-823 [12] = experiment: Effect on total H3 expression level in human BGC-823 cells at 1 uM by Western blot analysis; assay type: functional, cell-based
BGC-823 [13] = experiment: Antiproliferative activity against human BGC-823 cells assessed as reduction in cell viability incubated for 48 hrs in the presence of 3-MA by MTT assay; assay type: functional, cell-based
[14] = molecular target: T2, Histone-lysine N-methyltransferase SMYD3 (Homo sapiens, UniProt Q9H7B4); experiment: as §1
T2 sequence (Q9H7B4 whole entry): T1 sequence (whole entry)

[15] = molecular target: T1, Histone-lysine N-methyltransferase SMYD3 (Homo sapiens); experiment: Inhibition of SMYD3 in human BGC-823 cells transfected with SMYD3 siRNA assessed as suppression of H3K4 methylation level by Western blot analysis; assay type: cell-based
[16] = molecular target: Histone-lysine N-methyltransferase, H3 lysine-79 specific (Homo sapiens) (UniProt Q8TEK3); experiment: Inhibition of DOT1L (unknown origin)
[17] = Toxicity in Balb/c nude mouse xenografted with human BGC-823 cells assessed as change in main organs morphology at 15 to 30 mg/kg, ip by H&E staining based analysis; assay type: organism-based; conditions: in vivo, dose 15-30 mg/kg
BGC-823 [18] = experiment: Induction of autophagy in human BGC-823 cells transfected with GFP-LC3 assessed as increase in GFP-LC3 fluorescent puncta in the presence of 3-MA by DAPI staining based immunofluorescence analysis; assay type: functional, cell-based
[19] = molecular target: T1, Histone-lysine N-methyltransferase SMYD3 (Homo sapiens); experiment: Inhibition of SMYD3 in human BGC-823 cells assessed as translocation of SMYD3 from nucleus to cytoplasm by DAPI staining based analysis; assay type: cell-based
BGC-823 [20] = experiment: Induction of autophagy in human BGC-823 cells transfected with GFP-LC3 assessed as increase in GFP-LC3 fluorescent puncta by DAPI staining based immunofluorescence analysis; assay type: functional, cell-based
BGC-823 [21] = experiment: Antitumor activity against human BGC-823 cells xenografted in ip dosed Balb/c nude mouse assessed as suppression of tumor weight; assay type: functional, organism-based; conditions: dose 15-30 mg/kg
BGC-823 [22] = experiment: Inhibition of autophagic flux in human BGC-823 cells transfected with Akt1 siRNA assessed as LC3 cleavage incubated for 24 hrs by Western blot analysis; assay type: functional, cell-based
BGC-823 [23] = experiment: Inhibition of autophagic flux in human BGC-823 cells assessed as p62 accumulation incubated for 24 hrs in the presence of 3-MA by Western blot analysis; assay type: functional, cell-based
BGC-823 [24] = experiment: Antitumor activity against human BGC-823 cells xenografted in ip dosed Balb/c nude mouse assessed as suppression of tumor growth; assay type: functional, organism-based; conditions: dose 15-30 mg/kg
BGC-823 [25] = experiment: Antiproliferative activity against human BGC-823 cells xenografted in Balb/c nude mouse assessed as induction of autophagy by measuring increase in LC3-II staining at 15 to 30 mg/kg, ip by immunohistochemistry analysis; assay type: functional, organism-based; conditions: dose 15-30 mg/kg
BGC-823 [26] = experiment: Inhibition of autophagic flux in human BGC-823 cells transfected with Akt1 siRNA assessed as p62 accumulation incubated for 24 hrs by Western blot analysis; assay type: functional, cell-based
[27] = molecular target: N-lysine methyltransferase SMYD2 (Homo sapiens) (UniProt Q9NRG4); experiment: Inhibition of SMYD2 (unknown origin)
BGC-823 [28] = experiment: Inhibition of autophagic flux in human BGC-823 cells assessed as LC3-II accumulation incubated for 24 hrs in the presence of 3-MA by Western blot analysis; assay type: functional, cell-based
Mus musculus [29] = experiment: Effect on total SMYD3 protein level in Balb/c nude mouse xenografted with human BGC-823 cells at 15 to 30 mg/kg, ip by immunohistochemistry analysis; assay type: functional, organism-based; conditions: dose 15-30 mg/kg
[30] = Toxicity in Balb/c nude mouse xenografted with human BGC-823 cells assessed as change in body weight at 15 to 30 mg/kg, ip; assay type: organism-based; conditions: in vivo, dose 15-30 mg/kg
[31] = molecular target: T3, Histone-lysine N-methyltransferase EHMT2 (Homo sapiens) (UniProt Q96KQ7); experiment: Inhibition of G9a (unknown origin)
T3 sequence (whole entry): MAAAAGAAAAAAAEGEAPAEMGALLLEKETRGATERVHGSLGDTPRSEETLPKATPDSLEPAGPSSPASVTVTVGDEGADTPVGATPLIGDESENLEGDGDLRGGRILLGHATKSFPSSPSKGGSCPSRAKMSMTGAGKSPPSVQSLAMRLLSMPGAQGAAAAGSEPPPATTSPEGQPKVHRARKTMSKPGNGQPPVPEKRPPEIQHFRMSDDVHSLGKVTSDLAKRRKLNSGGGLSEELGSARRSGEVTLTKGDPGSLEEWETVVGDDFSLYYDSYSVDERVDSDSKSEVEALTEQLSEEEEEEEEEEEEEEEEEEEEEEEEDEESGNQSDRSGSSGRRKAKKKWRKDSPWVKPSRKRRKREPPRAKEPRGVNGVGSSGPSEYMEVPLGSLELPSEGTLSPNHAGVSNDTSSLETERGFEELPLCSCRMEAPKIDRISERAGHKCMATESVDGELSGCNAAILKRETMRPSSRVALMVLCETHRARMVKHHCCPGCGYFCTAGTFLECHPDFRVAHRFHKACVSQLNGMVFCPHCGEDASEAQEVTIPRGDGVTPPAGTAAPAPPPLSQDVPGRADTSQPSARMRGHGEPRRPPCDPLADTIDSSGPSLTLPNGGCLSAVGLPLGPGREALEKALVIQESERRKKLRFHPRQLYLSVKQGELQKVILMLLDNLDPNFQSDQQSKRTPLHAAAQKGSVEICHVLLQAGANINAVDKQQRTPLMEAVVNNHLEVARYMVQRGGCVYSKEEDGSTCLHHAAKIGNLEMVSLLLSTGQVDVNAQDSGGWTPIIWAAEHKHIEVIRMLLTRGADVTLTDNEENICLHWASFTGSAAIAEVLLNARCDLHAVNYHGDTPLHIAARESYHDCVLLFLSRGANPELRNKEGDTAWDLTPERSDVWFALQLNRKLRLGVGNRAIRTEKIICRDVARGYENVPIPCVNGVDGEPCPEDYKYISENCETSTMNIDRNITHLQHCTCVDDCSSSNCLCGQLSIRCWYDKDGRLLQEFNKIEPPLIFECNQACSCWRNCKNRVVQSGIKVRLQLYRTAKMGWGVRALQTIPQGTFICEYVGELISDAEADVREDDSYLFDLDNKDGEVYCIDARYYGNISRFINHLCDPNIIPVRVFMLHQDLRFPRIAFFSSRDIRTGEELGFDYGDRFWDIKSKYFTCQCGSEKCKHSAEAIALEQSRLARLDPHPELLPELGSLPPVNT

BGC-823 [32] = experiment: Antitumor activity against human BGC-823 cells xenografted in ip dosed Balb/c nude mouse assessed as suppression of tumor volume; assay type: functional, organism-based; conditions: dose 15-30 mg/kg
BGC-823 [33] = experiment: Inhibition of autophagic flux in human BGC-823 cells assessed as inhibition of autophagosome-lysosome fusion by measuring suppression of GFP-LC3 and LAMP1 intracellular co-localization incubated for 24 hrs by DAPI staining based immunofluorescence analysis; assay type: functional, cell-based

Sequence of Histone-lysine N-methyltransferase EZH2 (Homo sapiens) (Q15910 whole entry, looked up): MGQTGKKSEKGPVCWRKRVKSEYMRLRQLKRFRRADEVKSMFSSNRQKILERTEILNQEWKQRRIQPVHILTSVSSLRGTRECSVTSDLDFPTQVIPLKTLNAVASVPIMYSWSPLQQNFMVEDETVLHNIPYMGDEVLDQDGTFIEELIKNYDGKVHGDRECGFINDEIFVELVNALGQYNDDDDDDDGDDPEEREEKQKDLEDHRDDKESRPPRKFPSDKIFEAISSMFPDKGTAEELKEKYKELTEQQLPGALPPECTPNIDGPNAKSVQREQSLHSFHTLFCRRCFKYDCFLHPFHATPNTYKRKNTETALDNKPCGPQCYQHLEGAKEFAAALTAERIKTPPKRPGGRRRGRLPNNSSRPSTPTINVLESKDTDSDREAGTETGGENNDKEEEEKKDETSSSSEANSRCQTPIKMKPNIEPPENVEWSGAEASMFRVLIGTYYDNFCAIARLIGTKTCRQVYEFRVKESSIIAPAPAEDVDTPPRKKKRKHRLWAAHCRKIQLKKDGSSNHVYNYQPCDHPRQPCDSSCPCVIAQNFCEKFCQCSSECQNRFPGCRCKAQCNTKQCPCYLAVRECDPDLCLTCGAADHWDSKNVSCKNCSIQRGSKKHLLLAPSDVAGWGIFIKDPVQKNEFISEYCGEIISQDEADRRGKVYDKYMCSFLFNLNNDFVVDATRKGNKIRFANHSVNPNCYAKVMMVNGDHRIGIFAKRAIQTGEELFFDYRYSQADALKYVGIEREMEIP
Sequence of N-lysine methyltransferase SMYD2 (Homo sapiens) (Q9NRG4 whole entry): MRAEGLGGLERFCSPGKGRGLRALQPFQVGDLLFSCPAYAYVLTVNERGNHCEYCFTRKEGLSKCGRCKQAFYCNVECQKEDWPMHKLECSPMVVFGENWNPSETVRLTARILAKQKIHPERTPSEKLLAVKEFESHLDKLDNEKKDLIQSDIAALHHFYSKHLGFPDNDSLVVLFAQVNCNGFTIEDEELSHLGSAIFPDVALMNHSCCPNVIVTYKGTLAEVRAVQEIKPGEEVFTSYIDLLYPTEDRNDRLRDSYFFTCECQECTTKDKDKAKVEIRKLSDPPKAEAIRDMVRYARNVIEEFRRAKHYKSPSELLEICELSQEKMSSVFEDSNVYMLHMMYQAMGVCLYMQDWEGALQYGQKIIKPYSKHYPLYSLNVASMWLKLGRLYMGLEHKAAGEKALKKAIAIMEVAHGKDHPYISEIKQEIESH
Sequence of Histone-lysine N-methyltransferase, H3 lysine-79 specific (Homo sapiens) (Q8TEK3 whole entry, looked up): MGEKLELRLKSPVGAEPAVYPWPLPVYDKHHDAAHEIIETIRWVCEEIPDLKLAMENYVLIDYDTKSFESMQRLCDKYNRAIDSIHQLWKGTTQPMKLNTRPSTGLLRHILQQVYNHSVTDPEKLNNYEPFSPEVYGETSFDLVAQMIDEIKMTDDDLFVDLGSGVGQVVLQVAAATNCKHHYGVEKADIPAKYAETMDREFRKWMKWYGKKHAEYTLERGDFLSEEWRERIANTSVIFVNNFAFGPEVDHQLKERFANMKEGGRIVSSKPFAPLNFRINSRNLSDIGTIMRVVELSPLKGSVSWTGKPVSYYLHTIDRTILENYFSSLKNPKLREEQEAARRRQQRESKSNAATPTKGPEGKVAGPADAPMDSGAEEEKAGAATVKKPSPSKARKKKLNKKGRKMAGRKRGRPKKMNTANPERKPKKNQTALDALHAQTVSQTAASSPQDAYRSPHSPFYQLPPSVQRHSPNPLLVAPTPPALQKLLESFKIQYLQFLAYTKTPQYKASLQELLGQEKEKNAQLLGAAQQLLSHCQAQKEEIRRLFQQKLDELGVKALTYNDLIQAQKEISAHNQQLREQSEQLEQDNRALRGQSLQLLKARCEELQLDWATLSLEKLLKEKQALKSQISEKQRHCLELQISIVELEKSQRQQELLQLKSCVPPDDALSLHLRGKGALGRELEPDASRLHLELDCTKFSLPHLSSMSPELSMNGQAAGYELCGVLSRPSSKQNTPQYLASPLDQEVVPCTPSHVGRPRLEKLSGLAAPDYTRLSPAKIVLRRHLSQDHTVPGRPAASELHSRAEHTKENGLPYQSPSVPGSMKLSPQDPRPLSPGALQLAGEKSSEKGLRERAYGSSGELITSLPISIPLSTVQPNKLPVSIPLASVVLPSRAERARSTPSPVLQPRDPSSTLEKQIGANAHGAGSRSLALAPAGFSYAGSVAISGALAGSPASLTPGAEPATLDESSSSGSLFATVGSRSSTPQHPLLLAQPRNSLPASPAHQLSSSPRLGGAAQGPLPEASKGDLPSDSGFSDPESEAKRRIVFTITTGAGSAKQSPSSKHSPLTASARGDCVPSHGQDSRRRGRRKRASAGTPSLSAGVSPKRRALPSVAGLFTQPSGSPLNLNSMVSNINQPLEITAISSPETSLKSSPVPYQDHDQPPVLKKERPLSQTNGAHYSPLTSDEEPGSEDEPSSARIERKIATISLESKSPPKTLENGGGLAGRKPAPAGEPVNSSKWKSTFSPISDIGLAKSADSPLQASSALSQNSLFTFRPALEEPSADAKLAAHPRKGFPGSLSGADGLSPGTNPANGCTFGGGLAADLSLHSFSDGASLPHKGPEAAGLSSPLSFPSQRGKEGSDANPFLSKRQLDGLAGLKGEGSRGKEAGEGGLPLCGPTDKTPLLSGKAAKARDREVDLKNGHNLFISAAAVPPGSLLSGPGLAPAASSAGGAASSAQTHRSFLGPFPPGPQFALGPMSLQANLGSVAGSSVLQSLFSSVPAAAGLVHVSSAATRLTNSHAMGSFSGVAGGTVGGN

inhibition [1]: Active
Compound: Cc1ccc([C@@H]2[C@H]3CN(Cc4ccccc4)C(=O)[C@@]3(O)O[C@]23C(=O)Nc2ccccc23)cc1
Activity (BGC-823 [2]): Active
Activity (HGC-27): Active

inhibition [4]: inactive
inhibition [6]: Active
inhibition [10]: Active
IC50 [14]: 0.81 µM
IC50 (BGC-823 [2]): 0.75 µM
inhibition [15]: Active
inhibition [16]: inactive
inhibition [19]: Active
inhibition [27]: inactive
inhibition [31]: inactive
Compound: O=C1N(Cc2ccccc2)C[C@@H]2[C@@H](c3ccc(Br)cc3)[C@]3(O[C@]12O)C(=O)Nc1ccccc13
Activity (BGC-823 [3]): Active
Activity (BGC-823 [5]): inactive
Activity (Mus musculus [7]): inactive
inhibition (BGC-823 [8]): Active
Activity (BGC-823 [9]): inactive
Activity (BGC-823 [11]): Active
Activity (BGC-823 [12]): inactive
Activity (BGC-823 [13]): inactive
Activity [17]: Non-Toxic
Activity (BGC-823 [18]): inactive
Activity (BGC-823 [20]): Active
Activity (BGC-823 [21]): Dose-Dependent Effect
inhibition (BGC-823 [22]): Active
inhibition (BGC-823 [23]): Active
Activity (BGC-823 [24]): Dose-Dependent Effect
Activity (BGC-823 [25]): Active
inhibition (BGC-823 [26]): Active
inhibition (BGC-823 [28]): Active
Activity (Mus musculus [29]): inactive
Activity [30]: Non-Toxic
Activity (HGC-27): Active
Activity (BGC-823 [32]): Dose-Dependent Effect
inhibition (BGC-823 [33]): Active

inhibition [1]: Active
Compound: O=C1N(Cc2ccccc2)C[C@@H]2[C@@H](c3ccc(Cl)cc3)[C@]3(O[C@]12O)C(=O)Nc1ccccc13
Activity (BGC-823 [2]): Active
Activity (HGC-27): Active

inhibition [1]: Active
Compound: O=C1N(Cc2ccccc2)C[C@@H]2[C@@H](c3ccc4ccccc4c3)[C@]3(O[C@]12O)C(=O)Nc1ccccc13
Activity (BGC-823 [2]): Active
Activity (HGC-27): Active

The remaining lines, values behind:

Compound: O=C1N(Cc2ccccc2)C[C@@H]2[C@@H](c3ccc(Cl)cc3Cl)[C@]3(O[C@]12O)C(=O)Nc1ccccc13
inhibition [1]: Active
Activity (BGC-823 [2]): Active
Activity (HGC-27): Active

Compound: O=C1N(Cc2ccccc2)C[C@@H]2[C@@H](c3cccs3)[C@]3(O[C@]12O)C(=O)Nc1ccccc13
inhibition [1]: Active
Activity (BGC-823 [2]): Active
Activity (HGC-27): Active

Compound: COc1ccc([C@@H]2[C@H]3CN(Cc4ccccc4)C(=O)[C@@]3(O)O[C@]23C(=O)Nc2ccccc23)cc1OC
inhibition [1]: Active
Activity (BGC-823 [2]): Active
Activity (HGC-27): Active
